We go through four compounds from US7358376B2, “Substituted Thiophene compounds” (AstraZeneca AB, priority 2000, dated 2008).

Broadly, the melting point is the temperature, or range, at which the solid turns liquid.

For `COc1ccc(-c2cc(NC(N)=O)c(C(N)=O)s2)cc1` [Example 4, 3-[(Aminocarbonyl)amino]-5-(4-methoxyphenyl)-2-thiophenecarboxamide], the melting point is more than 300 °C.

On to `NC(=O)Nc1cc(-c2ccccc2Cl)sc1C(N)=O` [Example 7, 3-[(Aminocarbonyl)amino]5-(2-chlorophenyl)-2-thiophenecarboxamide], for which the melting point is more than 300 °C.

On to `CN(C)CCOc1ccccc1-c1cc(NC(N)=O)c(C(N)=O)s1` [Example 9, 3-[(Aminocarbonyl)amino]-5-{2-[2-(dimethylamino)ethoxy]phenyl}-2-thiophenecarboxamide], for which the melting point was found to be 180 °C.

In turn, `CN(C)CCOc1ccc(-c2cc(NC(N)=O)c(C(N)=O)s2)cc1` [Example 10, 3-[(Aminocarbonyl)amino]-5-{4-[2-(dimethylamino)ethoxy]phenyl}-2-thiophenecarboxamide] registered a melting point of more than 300 °C.
